Test results reported in ChEMBL document CHEMBL1158794, “A cytotoxic xanthone dimer from the entomopathogenic fungus Aschersonia sp. BCC 8401” (J Nat Prod, 2005).
In brackets after ≈: the same amount, converted by molar mass.

What was measured:
[1] = test system: Plasmodium falciparum; experiment: Antiplasmodial activity against multidrug-resistant Plasmodium falciparum K1 by [3H]hypoxanthine uptake; assay type: functional, organism-based
[2] = test system: Vero; experiment: Cytotoxicity against african green monkey Vero cells by SRB assay; assay type: cell-based; settings: Chlorocebus sabaeus
[3] = test system: KB; experiment: Cytotoxicity against human KB cells by SRB assay; assay type: functional, cell-based
[4] = Cytotoxicity against human BC cells by SRB assay; assay type: functional, cell-based
[5] = test system: NCI-H187; experiment: Cytotoxicity against human NCI-H187 cells by SRB assay; assay type: functional, cell-based

## CO[C@H]1CC=C2C(=O)c3c(cc(C)c(-c4c(C)cc5c(c4O)C(=O)C4=CC[C@H](OC)[C@@H](O)[C@]4(C)O5)c3O)O[C@@]2(C)[C@@H]1O [ASCHERXANTHONE A]
[1]
  IC50: 0.2 µg/mL (≈ 0.346 µM)
[2]
  IC50: 0.8 µg/mL (≈ 1.38 µM)
[3]
  IC50: 1.7 µg/mL (≈ 2.94 µM)
[4]
  IC50: 1.7 µg/mL (≈ 2.94 µM)
[5]
  IC50: 0.16 µg/mL (≈ 0.277 µM)
